Measured values as given in patent US8637558B2 (Industry-Academic Cooperation Foundation, Chosun University, priority 2008, dated 2014).

The compounds below were run against 15-PGDH (Homo sapiens (Human), UniProt P15428) (assay: Assay for the activities of 15-PGDH inhibitors (formation of NADH at 340 nm)). Settings: purified 15-PGDH enzyme, 21 μM PGE2, 0.25 mM NAD+, pH 7.5; concentration inhibiting 50% of 15-PGDH activity.
Assay type: biochemical
Protocol: <1-1> Expression and Purification of 15-PGDH
A 15-PGDH cDNA plasmid containing BamHI and EcoRI sites of the pGES-2T expression vector was used to transform Escherichia coli BL-21 lysS in accordance with the ordinarily used in the art. The transformed cells were grown in 500 mL LB medium containing 50 μg/mL ampicillin at 37° C. while being stirred at 220 rpm until the OD600 reached 0.6. Isopropyl β-D-thiogalactoside (1 mM) was added and the cells were allowed to grow for 12 hours at 25° C. Then, the pellets were harvested by centrifugation at 4000×g for 30 minutes at 4° C. The cell pallets were resuspended in 20 mL cell lysis buffer (1×PBS buffer (pH 7.4) containing 1 mM EDTA and 0.1 mM DTT) and sonicated (14×10 s at 4° C.). The disrupted cells were centrifuged at 4000×g for 20 minutes at 4° C. The supernatant was loaded slowly on a glutathione-sepharose 4B column, which was equilibrated at 4° C. with a cell lysis buffer (1×PBS buffer (pH 7.4) containing 1 mM EDTA and 0.1 mM DTT). The column was washed with the lysis buffer until OD280 reached below 0.005. Then, 15-PGDH was eluted from the glutathione-sepharose 4B column at room temperature for 5 minutes by using the elution buffer (50 mM Tris-HCl (pH 8.0) containing 10 mM reduced glutathione, 1 mM EDTA and 0.1 mM DTT). The concentration and the purity of the purified enzyme were determined by SDS-PAGE.
<1-2> Assay for the Activities of 15-PGDH Inhibitors
The absorbance of the reaction mixture was recorded at 340 nm so that the activities of the derivatives according to the present invention as 15-PGDH inhibitors were determined from a standard curve prepared from the absorbance of various concentrations of NADH at 340 nm.

Sequence of 15-PGDH (P15428 whole entry): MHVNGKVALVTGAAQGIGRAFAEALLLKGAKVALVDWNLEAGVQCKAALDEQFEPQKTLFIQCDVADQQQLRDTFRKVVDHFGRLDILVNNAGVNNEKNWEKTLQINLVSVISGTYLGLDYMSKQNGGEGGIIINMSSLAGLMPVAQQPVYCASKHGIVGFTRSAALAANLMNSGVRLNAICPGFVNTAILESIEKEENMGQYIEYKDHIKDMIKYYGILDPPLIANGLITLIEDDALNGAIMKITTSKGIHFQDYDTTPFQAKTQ

Going from `O=C1NC(=O)C(Cc2ccc(OCC3CCCCC3)c(Cl)c2)S1` (centres unmarked) to `O=C1NC(=O)/C(=C/c2ccc(OCCC3CCCCC3)c(Cl)c2)S1` [Derivative 11, 5-(3-chloro-4-(2-cyclohexylethoxy)benzylidene)thiazolidine-2,4-dione], the IC50 falls from 526 nM to 7.2 nM (73-fold).

First: O=C1NC(=O)C(Cc2ccc(OCC3CCCCC3)c(Cl)c2)S1 (single isomer, unassigned)
Second: O=C1NC(=O)/C(=C/c2ccc(OCCC3CCCCC3)cc2Cl)S1 [Derivative 18, 5-(2-chloro-4-(2-cyclohexylethoxy)benzylidene)thiazolidine-2,4-dione]
The IC50 of the first is 6.4-fold higher: 125 nM for the first, 19.6 nM for the second. The second is the more potent here.

`CC(C)OCCOc1ccc(/C=C2\SC(=O)NC2=O)cc1` [Derivative 1, 5-(4-(2-isopropoxyethoxy)benzylidene)thiazolidine-2,4-dione] and `Cc1ncsc1CCOc1ccc(/C=C2\SC(=O)NC2=O)cc1` [Derivative 19, 5-(4-(2-(4-methylthiazol-5-yl)ethoxy)benzylidene)thiazolidine-2,4-dione] are within 1.5-fold of each other in IC50: 961 nM for the first, 1170 nM for the second.

First: O=C1NC(=O)/C(=C/c2ccc(OCCN3CCOCC3)cc2)S1 [Derivative 2, 5-(4-(2-morpholinoethoxy)benzylidene)thiazolidine-2,4-dione]
Second: O=C1NC(=O)/C(=C/c2ccc(OCCN3CCCCC3)cc2)S1 [Derivative 14, 5-(4-(2-(piperidin-1-yl)ethoxy)benzylidene)thiazolidine-2,4-dione]
The IC50 of the first is 2.8-fold lower: 515 nM for the first, 1430 nM for the second. The first is the more potent here.

Compared with `O=C1NC(=O)/C(=C/c2ccc(OCCc3cccs3)cc2)S1` [Derivative 3, 5-(4-(2-(thiophen-2-yl)ethoxy)benzylidene)thiazolidine-2,4-dione], `O=C1NC(=O)/C(=C/c2ccc(OCCc3ccsc3)cc2)S1` [Derivative 4, 5-(4-(2-(thiophen-3-yl)ethoxy)benzylidene)thiazolidine-2,4-dione] is 1.5-fold higher in IC50: 95.9 nM for the first, 148 nM for the second.

Going from `O=C1NC(=O)/C(=C/c2ccc(OCCN3CCS(=O)(=O)CC3)cc2)S1` [Derivative 5, 5-[4-(2-thiomorpholine-1,1-dioxideethoxy)benzylidene]thiazolidine-2,4-dione] to `O=C1NC(=O)/C(=C/c2ccc(OCCNC3CCCCC3)cc2)S1` [Derivative 7, 5-(4-(2-(cyclohexylamino)ethoxy)benzylidene)thiazolidine-2,4-dione], the IC50 rises from 1370 nM to 2610 nM (1.9-fold).

`O=C1NC(=O)/C(=C/c2ccc(OCCc3ccccn3)cc2)S1` [Derivative 6, 5-(4-(2-(pyridin-2-yl)ethoxy)benzylidene)thiazolidine-2,4-dione] and `O=C1NC(=S)/C(=C/c2ccc(OCCC3CCCCC3)cc2)S1` [Derivative 13, 5-(4-(2-cyclohexylethoxy)benzylidene)-4-thioxothiazolidin-2-one] are within 1.5-fold of each other in IC50: 592 nM for the first, 689 nM for the second.

Compared with `COc1cc(/C=C2\SC(=O)NC2=O)ccc1OCCC1CCCCC1` [Derivative 8, 5-(4-(2-cyclohexylethoxy)-3-methoxybenzylidene)thiazolidine-2,4-dione], `Cc1cc(/C=C2\SC(=O)NC2=O)ccc1OCCC1CCCCC1` [Derivative 9, 5-(4-(2-cyclohexylethoxy)-3-methylbenzylidene)thiazolidine-2,4-dione] is 2.4-fold higher in IC50: 23 nM for the first, 55 nM for the second. The first is the more potent here.

First: COc1cc(/C=C2\SC(=O)NC2=O)cc(OC)c1OCCC1CCCCC1 [Derivative 10, 5-(4-(2-cyclohexylethoxy)-3,5-dimethoxybenzylidene)thiazolidine-2,4-dione]
Second: O=C1NC(=O)/C(=C/c2ccc(OCCC3CCCCC3)c(Br)c2)S1 [Derivative 15, 5-(3-bromo-4-(2-cyclohexylethoxy)benzylidene)thiazolidine-2,4-dione]
The IC50 of the first is 14-fold higher: 94.5 nM for the first, 6.6 nM for the second. The second is the more potent here.

Compared with `O=C1NC(=O)/C(=C/c2ccc(OCCCC3CCCCC3)c([N+](=O)[O-])c2)S1` [Derivative 12, 5-(4-(3-cyclohexylpropoxy)-3-nitrobenzylidene)thiazolidine-2,4-dione], `O=C1NC(=O)/C(=C/c2ccc(OCCC3CCCCC3)c(C(F)(F)F)c2)S1` [Derivative 16, 5-(4-(2-cyclohexylethoxy)-3-(trifluoromethyl)benzylidene)thiazolidine-2,4-dione] is 4.5-fold lower in IC50: 327 nM for the first, 71.9 nM for the second. The second is the more potent here.
